Source: ChEMBL document CHEMBL4118139, “Novel naphthyloxy derivatives - Potent histamine H3 receptor ligands. Synthesis and pharmacological evaluation” (Bioorg Med Chem, 2018)
Calls of active or inactive are those of the source. The calls are words filed in the database; no cut-off is given here.

Assays:
Histamine H3 receptor = Histamine H3 receptor (Homo sapiens, UniProt Q9Y5N1); assay: Displacement of [3H]N-alpha-methylhistamine from full length human H3 receptor expressed in HEK293 cell membranes after 90 mins
Sequence of Histamine H3 receptor (Q9Y5N1 whole entry): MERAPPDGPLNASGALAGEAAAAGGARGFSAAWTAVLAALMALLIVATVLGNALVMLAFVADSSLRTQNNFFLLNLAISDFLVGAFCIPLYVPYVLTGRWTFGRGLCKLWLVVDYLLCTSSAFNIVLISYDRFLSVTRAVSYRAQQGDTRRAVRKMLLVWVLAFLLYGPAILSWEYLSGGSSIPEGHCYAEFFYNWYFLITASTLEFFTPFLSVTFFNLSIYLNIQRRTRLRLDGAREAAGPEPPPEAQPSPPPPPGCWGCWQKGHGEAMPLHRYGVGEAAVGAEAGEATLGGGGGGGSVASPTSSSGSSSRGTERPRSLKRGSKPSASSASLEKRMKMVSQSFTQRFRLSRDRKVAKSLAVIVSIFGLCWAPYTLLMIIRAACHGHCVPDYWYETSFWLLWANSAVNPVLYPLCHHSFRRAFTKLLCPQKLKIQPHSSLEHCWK

Rattus norvegicus [1] = assay: In vivo antagonist activity at H3 receptor in RAMH-induced dipsogenic ip dosed Wistar (Krf:(WI) WU) rat model assessed as inhibition of RAMH-water intake administered 30 mins prior to RAMH induction; assay type: functional
Mus musculus [2] = assay: Anticonvulsant activity in albino CF-1 mouse assessed as protection against maximal electroshock-induced seizures at 50 mg/kg, ip after 0.25 hrs; assay type: functional, organism-based
Mus musculus [3] = assay: Anticonvulsant activity in albino CF-1 mouse assessed as protection against maximal electroshock-induced seizures at 50 mg/kg, ip after 0.5 hrs; assay type: functional, organism-based
Mus musculus [4] = assay: Anticonvulsant activity in albino CF-1 mouse assessed as protection against maximal electroshock-induced seizures at 50 mg/kg, ip after 4 hrs; assay type: functional, organism-based
Mus musculus [5] = assay: Neurotoxicity in albino CF-1 mouse assessed as increase in subcutaneous pentylenetetrazole-induced continuous seizures at 50 mg/kg, ip measured after 0.25 hrs; assay type: toxicity, organism-based; conditions: in vivo
Mus musculus [6] = assay: Neurotoxicity in albino CF-1 mouse assessed as increase in subcutaneous pentylenetetrazole-induced continuous seizures at 50 mg/kg, ip measured after 0.5 hrs; assay type: toxicity, organism-based; conditions: in vivo
Mus musculus [7] = assay: Neurotoxicity in albino CF-1 mouse assessed as increase in subcutaneous pentylenetetrazole-induced continuous seizures at 50 mg/kg, ip measured after 2 hrs; assay type: toxicity, organism-based; conditions: in vivo
Mus musculus [8] = assay: Neurotoxicity in albino CF-1 mouse at 50 mg/kg, ip after 0.5 hrs by rotarod test; assay type: toxicity, organism-based; conditions: in vivo
Mus musculus [9] = assay: Neurotoxicity in albino CF-1 mouse at 50 mg/kg, ip after 1 hr by rotarod test; assay type: toxicity, organism-based; conditions: in vivo
Mus musculus [10] = assay: Neurotoxicity in albino CF-1 mouse at 50 mg/kg, ip after 2 hrs by rotarod test; assay type: toxicity, organism-based; conditions: in vivo
Mus musculus [11] = assay: Neurotoxicity in albino CF-1 mouse at 50 mg/kg, ip after 4 hrs by rotarod test; assay type: toxicity, organism-based; conditions: in vivo
Mus musculus [12] = assay: Neurotoxicity in albino CF-1 mouse at 30 mg/kg, ip after 0.25 hrs by rotarod test; assay type: toxicity, organism-based; conditions: in vivo
Mus musculus [13] = assay: Neurotoxicity in albino CF-1 mouse at 30 mg/kg, ip after 1 hr by rotarod test; assay type: toxicity, organism-based; conditions: in vivo
Mus musculus [14] = assay: Neurotoxicity in albino CF-1 mouse at 30 mg/kg, ip after 4 hrs by rotarod test; assay type: toxicity, organism-based; conditions: in vivo
Rattus norvegicus [15] = assay: Anticonvulsant activity in Sprague-Dawley rat assessed as protection against maximal electroshock-induced seizures at 30 mg/kg, po after 2 hrs; assay type: functional, organism-based
Rattus norvegicus [16] = assay: Anticonvulsant activity in Sprague-Dawley rat assessed as protection against maximal electroshock-induced seizures at 65 mg/kg, po after 0.25 hrs; assay type: functional, organism-based
Mus musculus [17] = assay: Neurotoxicity in albino CF-1 mouse at 65 mg/kg after 0.5 hrs by rotarod test; assay type: toxicity, organism-based; conditions: in vivo
Mus musculus [18] = assay: Neurotoxicity in albino CF-1 mouse at 65 mg/kg after 4 hrs by rotarod test; assay type: toxicity, organism-based; conditions: in vivo
Mus musculus [19] = assay: Neurotoxicity in albino CF-1 mouse at 50 mg/kg after 4 hrs by rotarod test; assay type: toxicity, organism-based; conditions: in vivo
Mus musculus [20] = assay: Anticonvulsant activity in albino CF-1 mouse assessed as protection against 44 mA current-induced seizure at 50 mg/kg, ip after 0.25 hrs by 6 Hz psychomotor test; assay type: functional, organism-based
Mus musculus [21] = assay: Anticonvulsant activity in albino CF-1 mouse assessed as protection against 44 mA current-induced seizure at 50 mg/kg, ip after 2 hrs by 6 Hz psychomotor test; assay type: functional, organism-based
Mus musculus [22] = assay: Neurotoxicity in albino CF-1 mouse at 50 mg/kg after 0.25 hrs by rotarod test; assay type: toxicity, organism-based; conditions: in vivo
[23] = Neurotoxicity in ip dosed albino CF-1 mouse after 0.25 hrs by rotarod test; assay type: toxicity, organism-based; conditions: in vivo
Rattus norvegicus [24] = assay: Anticonvulsant activity in ip dosed Sprague-Dawley rat assessed as protection against maximal electroshock-induced seizures after 0.25 hrs; assay type: functional
Rattus norvegicus [25] = assay: Anticonvulsant activity in po dosed Sprague-Dawley rat assessed as protection against maximal electroshock-induced seizures after 1 hr; assay type: functional
Rattus norvegicus [26] = assay: Anticonvulsant activity in ip Sprague-Dawley rat assessed as protection against subcutaneous pentylenetetrazole-induced seizures measured after 0.25 hrs; assay type: functional
Mus musculus [27] = assay: Anticonvulsant activity in ip dosed albino CF-1 mouse assessed as protection against 32 mA current-induced seizure after 1 hr by 6 Hz psychomotor test; assay type: functional; conditions: CF-1, ip
[28] = Therapeutic index, ratio of po dosed Sprague-Dawley rat TD50 to po dosed Sprague-Dawley rat ED50 for MES assay; assay type: toxicity, organism-based; conditions: in vivo, read-out: TI
[29] = Therapeutic index, ratio of ip dosed albino CF-1 mouse TD50 to ip dosed albino CF-1 mouse ED50 for 32 mA current-induced 6 Hz psychomotor test; assay type: toxicity, organism-based; conditions: in vivo, read-out: TI
Mus musculus [30] = assay: Analgesic activity in ip dosed albino Swiss CD1 mouse assessed reduction in formalin-induced inflammatory pain by measuring reduction in time spent in licking pretreated prior to formalin injection measured at 15 to 30 mins post formalin injection; assay type: functional
[31] = target: Histamine H1 receptor (Homo sapiens) (UniProt P35367); assay: Displacement of [3H]-pyrilamine from human histamine H1 receptor expressed in CHO cell membranes at 1 uM relative to chlorpheniramine
Sequence of Histamine H1 receptor (Homo sapiens) (P35367 whole entry): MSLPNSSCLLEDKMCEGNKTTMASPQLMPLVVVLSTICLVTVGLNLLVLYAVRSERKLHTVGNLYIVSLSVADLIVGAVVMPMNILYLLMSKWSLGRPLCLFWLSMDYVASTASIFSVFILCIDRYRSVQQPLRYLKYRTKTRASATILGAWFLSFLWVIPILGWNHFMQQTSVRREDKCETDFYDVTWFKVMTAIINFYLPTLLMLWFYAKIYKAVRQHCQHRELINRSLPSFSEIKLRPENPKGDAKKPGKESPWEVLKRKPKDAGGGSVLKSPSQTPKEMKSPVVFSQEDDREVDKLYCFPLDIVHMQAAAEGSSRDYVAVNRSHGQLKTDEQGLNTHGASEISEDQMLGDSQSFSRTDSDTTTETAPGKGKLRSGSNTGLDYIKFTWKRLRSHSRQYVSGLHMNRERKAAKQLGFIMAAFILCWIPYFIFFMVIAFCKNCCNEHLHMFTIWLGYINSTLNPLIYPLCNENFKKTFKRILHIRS

[32] = target: D(1A) dopamine receptor (Homo sapiens) (UniProt P21728); assay: Displacement of [3H]-SCH23390 from human dopamine D1 receptor expressed in HEK293 cell membranes at 1 uM relative to fluphenazin
Sequence of D(1A) dopamine receptor (Homo sapiens) (P21728 whole entry): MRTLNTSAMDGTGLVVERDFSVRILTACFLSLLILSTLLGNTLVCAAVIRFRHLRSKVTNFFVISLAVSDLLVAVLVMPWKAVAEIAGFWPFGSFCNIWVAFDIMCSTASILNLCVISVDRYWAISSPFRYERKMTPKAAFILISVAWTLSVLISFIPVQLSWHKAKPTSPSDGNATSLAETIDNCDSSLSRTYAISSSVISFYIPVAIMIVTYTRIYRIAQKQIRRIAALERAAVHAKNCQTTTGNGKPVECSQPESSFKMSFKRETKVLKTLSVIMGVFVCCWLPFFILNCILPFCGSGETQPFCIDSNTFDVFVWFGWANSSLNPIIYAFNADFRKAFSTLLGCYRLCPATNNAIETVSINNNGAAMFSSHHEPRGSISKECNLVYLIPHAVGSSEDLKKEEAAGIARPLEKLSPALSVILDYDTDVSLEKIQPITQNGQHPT

[33] = target: D(2) dopamine receptor (Homo sapiens) (UniProt P14416); assay: Displacement of [3H]-spiperone from human dopamine D2 receptor expressed in CHO cell membranes at 1 uM relative to haloperidol
Sequence of D(2) dopamine receptor (Homo sapiens) (P14416 whole entry): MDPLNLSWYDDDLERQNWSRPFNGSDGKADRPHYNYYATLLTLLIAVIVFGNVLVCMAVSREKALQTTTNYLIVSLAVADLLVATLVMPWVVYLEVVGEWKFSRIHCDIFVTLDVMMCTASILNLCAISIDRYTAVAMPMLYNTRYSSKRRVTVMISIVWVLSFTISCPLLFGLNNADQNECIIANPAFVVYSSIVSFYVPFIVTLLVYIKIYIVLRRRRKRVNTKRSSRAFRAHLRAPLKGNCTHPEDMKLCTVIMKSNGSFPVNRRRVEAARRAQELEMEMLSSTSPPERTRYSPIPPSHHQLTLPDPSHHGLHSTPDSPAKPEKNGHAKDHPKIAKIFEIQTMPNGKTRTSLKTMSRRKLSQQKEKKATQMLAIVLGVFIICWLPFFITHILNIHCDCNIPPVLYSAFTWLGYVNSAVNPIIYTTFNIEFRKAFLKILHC

[34] = target: 5-hydroxytryptamine receptor 2A (Homo sapiens, UniProt P28223); assay: Displacement of [3H]-ketanserin from human 5-HT2A receptor expressed in CHO cell membranes after 1 hr
Sequence of 5-hydroxytryptamine receptor 2A (P28223 whole entry): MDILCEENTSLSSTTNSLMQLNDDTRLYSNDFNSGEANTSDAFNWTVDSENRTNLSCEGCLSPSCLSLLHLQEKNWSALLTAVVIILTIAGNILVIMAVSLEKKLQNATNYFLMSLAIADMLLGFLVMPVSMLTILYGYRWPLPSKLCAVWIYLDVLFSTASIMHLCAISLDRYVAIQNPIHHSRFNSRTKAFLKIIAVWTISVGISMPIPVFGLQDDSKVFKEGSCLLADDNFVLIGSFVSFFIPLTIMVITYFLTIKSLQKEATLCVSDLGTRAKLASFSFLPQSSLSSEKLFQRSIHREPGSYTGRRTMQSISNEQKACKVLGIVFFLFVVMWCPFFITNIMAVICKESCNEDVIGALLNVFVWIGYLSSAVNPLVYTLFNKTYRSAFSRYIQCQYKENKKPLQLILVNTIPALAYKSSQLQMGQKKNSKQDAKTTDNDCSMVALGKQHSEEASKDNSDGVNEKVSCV

[35] = target: 5-hydroxytryptamine receptor 6 (Homo sapiens, UniProt P50406); assay: Displacement of [3H]-LSD from human 5-HT6 receptor expressed in HEK293 cell membranes after 1 hr
Sequence of 5-hydroxytryptamine receptor 6 (P50406 whole entry): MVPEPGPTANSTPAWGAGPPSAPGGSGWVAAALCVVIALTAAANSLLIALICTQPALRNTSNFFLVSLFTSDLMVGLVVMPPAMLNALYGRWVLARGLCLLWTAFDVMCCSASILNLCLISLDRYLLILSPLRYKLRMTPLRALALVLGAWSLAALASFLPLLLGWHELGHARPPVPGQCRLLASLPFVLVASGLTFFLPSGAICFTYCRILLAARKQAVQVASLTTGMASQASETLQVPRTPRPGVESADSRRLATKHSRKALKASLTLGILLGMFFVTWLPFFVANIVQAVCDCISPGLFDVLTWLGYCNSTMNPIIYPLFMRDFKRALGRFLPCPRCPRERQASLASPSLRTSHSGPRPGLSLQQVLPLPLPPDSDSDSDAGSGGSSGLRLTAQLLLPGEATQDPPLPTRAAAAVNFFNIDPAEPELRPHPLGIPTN

CYP3A4 = CYP3A4 (Homo sapiens, UniProt P08684); assay: Inhibition of CYP3A4 (unknown origin) at 25 uM by CYP3A4 P450-Glo assay; assay type: ADME
Sequence of CYP3A4 (P08684 whole entry): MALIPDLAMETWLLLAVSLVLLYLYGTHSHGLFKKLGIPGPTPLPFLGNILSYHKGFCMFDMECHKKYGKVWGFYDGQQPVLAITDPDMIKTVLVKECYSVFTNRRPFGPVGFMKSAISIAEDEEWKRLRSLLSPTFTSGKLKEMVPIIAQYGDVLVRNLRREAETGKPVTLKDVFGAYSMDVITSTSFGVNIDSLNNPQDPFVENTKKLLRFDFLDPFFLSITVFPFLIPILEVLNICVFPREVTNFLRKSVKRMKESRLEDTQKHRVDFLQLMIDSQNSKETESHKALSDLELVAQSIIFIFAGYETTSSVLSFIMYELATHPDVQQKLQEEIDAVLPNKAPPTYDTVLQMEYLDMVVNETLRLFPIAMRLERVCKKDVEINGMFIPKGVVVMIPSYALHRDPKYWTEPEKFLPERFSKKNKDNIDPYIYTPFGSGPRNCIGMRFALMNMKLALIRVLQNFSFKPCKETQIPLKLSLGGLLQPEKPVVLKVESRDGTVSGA

Salmonella typhimurium = assay: Mutagenicity in Salmonella typhimurium TA100 assessed as increase in number of revertants at 10 uM after 90 mins by Ames test; assay type: toxicity, organism-based; conditions: salmonella enterica subsp. enterica serovar typhimurium, 1.5 h

## c1ccc2c(OCCCCCN3CCCCC3)cccc2c1
Histamine H3 receptor
  Ki: 53.9 nM
Rattus norvegicus [1]
  ED50: 2.37 mg/kg
Mus musculus [2]
  Activity: Active
Mus musculus [3]
  Activity: Active
Mus musculus [4]
  Activity: inactive
Mus musculus [5]
  Activity: Non-Toxic
Mus musculus [6]
  Activity: Non-Toxic
Mus musculus [7]
  Activity: Non-Toxic
Mus musculus [8]
  Activity: Non-Toxic
Mus musculus [9]
  Activity: Non-Toxic
Mus musculus [10]
  Activity: Non-Toxic
Mus musculus [11]
  Activity: Non-Toxic
Mus musculus [12]
  Activity: Non-Toxic
Mus musculus [13]
  Activity: Non-Toxic
Mus musculus [14]
  Activity: Non-Toxic
Rattus norvegicus [15]
  Activity: inactive
Rattus norvegicus [16]
  Activity: inactive
Mus musculus [17]
  Activity: Non-Toxic
Mus musculus [18]
  Activity: Non-Toxic
Mus musculus [19]
  Activity: Non-Toxic
Mus musculus [20]
  Activity: inactive
Mus musculus [21]
  Activity: inactive
Mus musculus [22]
  Activity: Non-Toxic
[23]
  TD50 at 0.25 h: 94.8 mg/kg
Rattus norvegicus [24]
  ED50: 17.8 mg/kg
Rattus norvegicus [25]
  ED50: 78.1 mg/kg
Rattus norvegicus [26]
  ED50: > 60.6 mg/kg
Mus musculus [27]
  ED50: 33.1 mg/kg
[28]
  selectivity ratio: > 6.4
[29]
  selectivity ratio: 2.9
Mus musculus [30]
  ED50: 30 mg/kg
[31]
  inhibition: 17%
[32]
  inhibition: 6.7%
[33]
  inhibition: 2%
[34]
  Ki: 3900 nM
[35]
  Ki: 2540 nM
CYP3A4
  inhibition at 25 µM: 50%
Salmonella typhimurium
  Activity: Non-Toxic
